Test in all cases: Growth in liquid media in presence of test compound
Type in all cases: cell-based

Test [1] relates to Mycobacterium tuberculosis (H37Rv).
The test system of test [2] is Escherichia coli (ATCC 25922). The source says:
(§1) Test organisms used were the bacterial strains Escherichia coli (ATCC 25922), Pseudomonas aeruginosa (ATCC 27853), Staphylococcus aureus (ATCC 25923), Streptococcus pyogenes (ATCC 19615), and Mycobacterium tuberculosis (H37Rv), and the yeast strain Candida albicans (ATCC 90028).
(§2) The liquid media used for growth were Luria-Bertani (Becton Dickinson, Sparks, Md.) and Mueller-Hinton (bio-Merieux, Paris, France) broths, but with Saburo medium for Candida and Middlebrook 7H9 medium (Difco) for mycobacteria.
(§3) The strains were grown at 37° C. and after suitable cell concentrations had been reached, 100 μL of each cell suspension was added to a tube with growth media and test compound. Cultivation of the bacteria was then carried out in the presence of each test compound at 37° C. and the tubes examined for visible growth. The compounds were tested at concentrations of either 500 mg/l, 50 mg/l or 5 mg/l. This assay was repeated twice.
(§4) Some compounds were only tested against some test organisms. It will be appreciated that the charge of these molecules will depend on the environment, some of the Examples are shown with a suitable counter ion, some without.

The test system of test [3] is Staphylococcus aureus (ATCC 25923).
Description: as §1, §2, §3, §4

Test [4] has as its system Pseudomonas aeruginosa (ATCC 27853).
Description: as §1, §2, §3, §4

The subject of test [5] is Candida albicans (ATCC 90028).
Description: as §1, §2, §3, §4

The test system of test [6] is Streptococcus pyogenes (ATCC 19615).
Description: as §1, §2, §3, §4

In the case of `CC1(C)C2CC3OB(C(CNC(=O)C(N)CCCCN)Cc4ccc(OC(F)(F)F)cc4)OC3(C)C1C2.Cl.Cl` (stereo not drawn) [Compound 47], the entries for the “Growth in the presence of test compound, M. tuberculosis” value (“Growth … M. tuberculosis” for short) in test [1] (5 mg/L), in test [1] (50 mg/L) and in test [1] (500 mg/L) were “+”, “−” and “−”, respectively. In addition, the “Growth in the presence of test compound, E. coli” value (“Growth in the presence … E. coli” for short) in test [2] (5 mg/L) was “+”; in test [2] (50 mg/L), “+”; in test [2] (500 mg/L), “−”. Moreover, the “Growth in the presence of test compound, S. aureus” value (“Growth in the presence … S. aureus” for short) in test [3] (5 mg/L) is reported as “+”; in test [3] (50 mg/L) it was “+”; in test [3] (500 mg/L), “−”. Further, the results for the “Growth in the presence of test compound, P. aeruginosa” value (shortened to “Growth … P. aeruginosa”) in test [4] (5 mg/L), in test [4] (50 mg/L) and in test [4] (500 mg/L) were “+”, “+” and “−”, respectively. Further, the “Growth in the presence of test compound, C. albicans” value (“Growth in the presence … C. albicans” below) in test [5] (5 mg/L) is reported as “+”; in test [5] (50 mg/L), “+”; in test [5] (500 mg/L) it was “−”. Further, the “Growth in the presence of test compound, S. pyogenes” value (“Growth in the presence … S. pyogenes” below) is recorded as “+” in test [6] (5 mg/L), “+” in test [6] (50 mg/L) and “−” in test [6] (500 mg/L).

Take `CC1(C)C2CC3OB([C@@H](CNC(=O)[C@H](N)Cc4ccccc4)Cc4ccccc4)O[C@]3(C)C1C2` (stereo partly drawn) [Compound 41]: the “Growth … M. tuberculosis” value in test [1] (5 mg/L) was “+”; in test [1] (50 mg/L) it was “±”; in test [1] (500 mg/L) it was “±”. Besides, the “Growth in the presence … E. coli” value in test [2] (5 mg/L), in test [2] (50 mg/L) and in test [2] (500 mg/L) was “+” throughout. The “Growth in the presence … S. aureus” value in test [3] (5 mg/L) is reported as “+”; in test [3] (50 mg/L), “+”; in test [3] (500 mg/L), “±”. Also, the “Growth … P. aeruginosa” value in test [4] (5 mg/L), in test [4] (50 mg/L) and in test [4] (500 mg/L) was “+” throughout. Further, the “Growth in the presence … C. albicans” value is “+” in test [5] (5 mg/L), “±” in test [5] (50 mg/L) and “±” in test [5] (500 mg/L). The “Growth in the presence … S. pyogenes” value in test [6] (5 mg/L) is given as “+”; in test [6] (50 mg/L), “+”; in test [6] (500 mg/L) it was “±”.

With `CC1(C)C2CC3OB([C@@H](CNC(=O)[C@@H](N)CCCNC(=N)N)Cc4ccccc4)O[C@]3(C)C1C2` (stereo partly drawn) [Compound 11], the “Growth … M. tuberculosis” value was “±” in test [1] (5 mg/L), “−” in test [1] (50 mg/L) and “−” in test [1] (500 mg/L). The “Growth in the presence … E. coli” value is listed as “+” in test [2] (5 mg/L), “+” in test [2] (50 mg/L) and “−” in test [2] (500 mg/L). The “Growth in the presence … S. aureus” value in test [3] (5 mg/L) was “+”; in test [3] (50 mg/L), “+”; in test [3] (500 mg/L), “−”. In addition, the “Growth … P. aeruginosa” value is given as “+” in test [4] (5 mg/L), “+” in test [4] (50 mg/L) and “−” in test [4] (500 mg/L). The “Growth in the presence … C. albicans” value in test [5] (5 mg/L) was “+”; in test [5] (50 mg/L) it was “+”; in test [5] (500 mg/L), “−”. Further, the “Growth in the presence … S. pyogenes” value in test [6] (5 mg/L) is reported as “+”; in test [6] (50 mg/L), “+”; in test [6] (500 mg/L), “−”.

With `CC(B1OC2CC3CC(C3(C)C)C2(C)O1)C(Cc1ccccc1)NC(=O)C(Cc1ccccc1)NC(=O)C(N)CCCCN` (stereo not drawn) [Compound 36], the “Growth … M. tuberculosis” value in test [1] (5 mg/L) is reported as “+”; in test [1] (50 mg/L), “−”; in test [1] (500 mg/L), “−”. The results for the “Growth in the presence … E. coli” value in test [2] (5 mg/L), in test [2] (50 mg/L) and in test [2] (500 mg/L) were “+”, “+” and “−”, respectively. The “Growth in the presence … S. aureus” value is recorded as “+” in test [3] (5 mg/L), “+” in test [3] (50 mg/L) and “−” in test [3] (500 mg/L). For the same molecule, the “Growth … P. aeruginosa” value in test [4] (5 mg/L) is “+”; in test [4] (50 mg/L) it was “+”; in test [4] (500 mg/L), “−”. The “Growth in the presence … C. albicans” value is recorded as “+” in test [5] (5 mg/L), “+” in test [5] (50 mg/L) and “±” in test [5] (500 mg/L). In addition, the results for the “Growth in the presence … S. pyogenes” value in test [6] (5 mg/L), in test [6] (50 mg/L) and in test [6] (500 mg/L) were “+”, “+” and “−”, respectively.

On to `Cl.N[C@@H](Cc1ccccc1)C(=O)NC[C@@H](Cc1ccc(F)cc1)B(O)O` [Compound 50], for which the “Growth … M. tuberculosis” value in test [1] (5 mg/L) is recorded as “±”; in test [1] (50 mg/L) it was “−”; in test [1] (500 mg/L) it was “−”. Besides, the “Growth in the presence … E. coli” value in test [2] (5 mg/L) is given as “+”; in test [2] (50 mg/L), “+”; in test [2] (500 mg/L), “−”. Also, the figures for the “Growth in the presence … S. aureus” value in test [3] (5 mg/L), in test [3] (50 mg/L) and in test [3] (500 mg/L) were “+”, “+” and “−”, respectively. Moreover, the “Growth … P. aeruginosa” value is listed as “+” in test [4] (5 mg/L), “+” in test [4] (50 mg/L) and “±” in test [4] (500 mg/L). In addition, the “Growth in the presence … C. albicans” value in test [5] (5 mg/L), in test [5] (50 mg/L) and in test [5] (500 mg/L) was “+” throughout. Moreover, the entries for the “Growth in the presence … S. pyogenes” value in test [6] (5 mg/L), in test [6] (50 mg/L) and in test [6] (500 mg/L) were “+”, “+” and “−”, respectively.

Regarding `C[C@H](N)C(=O)NC[C@H](Cc1ccccc1)B1OC2CC3CC(C3(C)C)[C@]2(C)O1` (stereo partly drawn) [Compound 15], the “Growth … M. tuberculosis” value in test [1] (5 mg/L) is “+”; in test [1] (50 mg/L) it was “−”; in test [1] (500 mg/L), “−”. Besides, the “Growth in the presence … E. coli” value in test [2] (5 mg/L) was “+”; in test [2] (50 mg/L), “+”; in test [2] (500 mg/L), “±”. In addition, the results for the “Growth in the presence … S. aureus” value in test [3] (5 mg/L), in test [3] (50 mg/L) and in test [3] (500 mg/L) were “+”, “+” and “−”, respectively. Further, the “Growth … P. aeruginosa” value in test [4] (5 mg/L), in test [4] (50 mg/L) and in test [4] (500 mg/L) was “+” each time. The “Growth in the presence … C. albicans” value is listed as “+” in test [5] (5 mg/L), “+” in test [5] (50 mg/L) and “−” in test [5] (500 mg/L). Moreover, the “Growth in the presence … S. pyogenes” value in test [6] (5 mg/L), in test [6] (50 mg/L) and in test [6] (500 mg/L) was “+” in each case.

As to `CC1(C)C2CC3OB([C@H](CNC(=O)[C@@H](N)Cc4ccccc4)Cc4ccccc4)O[C@@]3(C)C1C2` (stereo partly drawn) [Compound 14], the “Growth … M. tuberculosis” value in test [1] (5 mg/L) is recorded as “+”; in test [1] (50 mg/L), “−”; in test [1] (500 mg/L), “−”. Moreover, the “Growth in the presence … E. coli” value in test [2] (5 mg/L), in test [2] (50 mg/L) and in test [2] (500 mg/L) was “+” each time. Further, the “Growth in the presence … S. aureus” value in test [3] (5 mg/L), in test [3] (50 mg/L) and in test [3] (500 mg/L) was “+” each time. Further, the “Growth … P. aeruginosa” value in test [4] (5 mg/L) is given as “+”; in test [4] (50 mg/L), “+”; in test [4] (500 mg/L), “−”. Also, the “Growth in the presence … C. albicans” value is reported as “+” in test [5] (5 mg/L), “±” in test [5] (50 mg/L) and “±” in test [5] (500 mg/L). Further, the entries for the “Growth in the presence … S. pyogenes” value in test [6] (5 mg/L), in test [6] (50 mg/L) and in test [6] (500 mg/L) were “+”, “+” and “±”, respectively.

(Values after patent US20150018311A1, “THERAPEUTIC BORON-CONTAINING COMPOUNDS” (priority 2012, published 2015).)
